# Source: publication PMC11307993 (ACS Omega, 2024)
# Several values for one entry are separate records, joined by “and”; a condition that tells them apart may be missing. Equal entries are not always repeated.
# Assays:
# [1] = system: acetic acid-induced writhing; assay: In vivo analgesic assay, acetic acid-induced writhing method; design: species or system Wistar rats; details: for potency: % inhibition of tested compound / % inhibition of reference (celecoxib); for % inhibition (number of writhing) / no. of writhes (mean ± SE): acetic acid-induced writhing
# [2] = system: rat stomach; assay: Gastric ulcerogenic activity; type: in vivo; details: oral 10 mg/kg
# [3] = system: serum levels of LDH, Tn-I, TNF-α and CK-MB; assay: Evaluation of cardiovascular parameters; type: in vivo, rats; details: rat serum, 100 mg/kg oral, 2 weeks
# [4] = system: carrageenan induced rat paw edema; assay: In vivo anti-inflammatory assay, carrageenan-induced paw edema; details: 2 mg/kg oral; for % of edema inhibition 1 h: 1 h after carrageenan injection; for % of edema inhibition 3 h: 3 h after carrageenan injection; for % of edema inhibition 5 h: 5 h after carrageenan injection
# [5] = molecular target: T1, COX-2 (Homo sapiens, UniProt P35354); assay: biochemical; type: biochemical; details: for SI (selectivity index): IC50 (COX-1)/IC50 (COX-2); for fold less potent than compound 8o against COX-2: ratio of COX-2 IC50 values
# T1 sequence (P35354 18-604): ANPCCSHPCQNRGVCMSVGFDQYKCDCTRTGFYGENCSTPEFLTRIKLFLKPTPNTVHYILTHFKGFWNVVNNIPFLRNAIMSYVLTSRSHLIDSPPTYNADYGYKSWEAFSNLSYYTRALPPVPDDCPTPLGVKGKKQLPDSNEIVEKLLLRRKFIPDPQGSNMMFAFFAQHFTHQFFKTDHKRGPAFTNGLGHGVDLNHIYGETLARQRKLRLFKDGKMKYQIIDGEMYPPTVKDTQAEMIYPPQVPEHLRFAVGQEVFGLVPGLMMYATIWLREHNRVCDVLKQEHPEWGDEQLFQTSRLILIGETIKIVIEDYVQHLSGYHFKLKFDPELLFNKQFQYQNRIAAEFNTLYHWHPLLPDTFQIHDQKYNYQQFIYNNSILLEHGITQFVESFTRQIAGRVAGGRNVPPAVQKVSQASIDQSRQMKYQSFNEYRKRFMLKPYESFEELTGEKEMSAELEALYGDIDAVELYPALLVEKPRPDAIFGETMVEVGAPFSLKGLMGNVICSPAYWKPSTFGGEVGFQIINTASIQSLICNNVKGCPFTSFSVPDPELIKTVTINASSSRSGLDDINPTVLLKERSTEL
# [6] = system: 5-LOX; details: read-out: 5-LOX (IC50)
# [7] = molecular target: T2, sEH (Homo sapiens, UniProt P34913); assay: In vitro sEH inhibition assay; type: biochemical; details: sEH (IC50, nM)
# T2 sequence (P34913 1-555): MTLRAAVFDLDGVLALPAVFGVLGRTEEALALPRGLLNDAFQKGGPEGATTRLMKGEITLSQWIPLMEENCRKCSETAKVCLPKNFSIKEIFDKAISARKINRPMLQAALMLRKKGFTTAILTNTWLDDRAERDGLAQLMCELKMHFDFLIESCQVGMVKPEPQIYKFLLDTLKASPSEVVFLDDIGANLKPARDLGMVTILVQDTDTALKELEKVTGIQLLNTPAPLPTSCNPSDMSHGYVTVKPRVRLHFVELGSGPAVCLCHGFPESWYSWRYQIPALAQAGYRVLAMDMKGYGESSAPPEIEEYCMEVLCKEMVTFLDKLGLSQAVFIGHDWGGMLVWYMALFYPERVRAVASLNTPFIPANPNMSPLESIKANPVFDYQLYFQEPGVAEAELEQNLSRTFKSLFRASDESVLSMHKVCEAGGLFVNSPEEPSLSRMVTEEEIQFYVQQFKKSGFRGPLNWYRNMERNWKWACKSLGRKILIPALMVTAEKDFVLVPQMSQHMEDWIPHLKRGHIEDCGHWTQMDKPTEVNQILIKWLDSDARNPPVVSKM
# [8] = cited from earlier work
smiles,measurement,setting,value
"Cc1ccc(-c2cc(C(F)(F)F)nn2-c2ccc(S(N)(=O)=O)cc2)cc1 [Celecoxib, reference compound]",potency,[1],1.00
same,% inhibition (number of writhing),[1],13.5%
same,no. of writhes (mean ± SE),[1],29.00 ± 0.70
same,% inhibition (number of writhing),[1]; listed as celecoxib,13.50%
same,score: no. of gastric ulcers,[2],2.5 ± 0.10
same,score: severity lesions,[2],5.80 ± 0.20
same,CK-MB (IU/L),[3],96 ± 04 IU/L
same,LDH (IU/L),[3],2100 ± 90 IU/L
same,troponin-I,[3],340 ± 10 pg/mL
same,% of edema inhibition 1 h,[4],40%
same,% of edema inhibition 3 h,[4],54%
same,% of edema inhibition 5 h,[4],22%
"N#CC1=C(N)n2c(nnc2-c2ccccc2)NC1c1ccccc1 (centres unmarked) [Compound 8a, 5-Amino-7,8-dihydro-3,7-diphenyl-[1,2,4]triazolo[4,3-a]pyrimidine-6-carbonitrile]",IC50,[5],21.7 µM
same,SI (selectivity index),[5],10
"Cc1ccc(C2Nc3nnc(-c4ccccc4)n3C(N)=C2C#N)cc1 (centres unmarked) [Compound 8d, 5-Amino-7,8-dihydro-3-phenyl-7-p-tolyl-[1,2,4]triazolo[4,3-a]pyrimidine-6-carbonitrile]",IC50,[5],46.9 µM
same,SI (selectivity index),[5],6
"COc1ccc(C2Nc3nnc(-c4ccccc4)n3C(N)=C2C#N)cc1 (centres unmarked) [Compound 8e, 5-Amino-7,8-dihydro-7-(4-methoxyphenyl)-3-phenyl-[1,2,4]triazolo[4,3-a]pyrimidine-6-carbonitrile]",IC50,[5],29.7 µM
same,SI (selectivity index),[5],8
same,fold less potent than compound 8o against COX-2,[5],2.8 fold
"N#CC1=C(N)n2c(nnc2-c2ccncc2)NC1c1ccccc1 (centres unmarked) [Compound 8f, 5-Amino-7,8-dihydro-7-phenyl-3-(pyridin-4-yl)-[1,2,4]triazolo[4,3-a]pyrimidine-6-carbonitrile]",IC50,[5],51.5 µM
same,SI (selectivity index),[5],6
"COc1ccc(C2Nc3nnc(-c4ccncc4)n3C(N)=C2C#N)cc1 (centres unmarked) [Compound 8j, 5-Amino-7,8-dihydro-7-(4-methoxyphenyl)-3-(pyridin-4-yl)-[1,2,4]-triazolo[4,3-a]pyrimidine-6-carbonitrile]",IC50,[5],42.7 µM
same,SI (selectivity index),[5],7
same,fold less potent than compound 8o against COX-2,[5],4 fold
"N#CC1=C(N)n2c(nnc2-c2cccnc2)NC1c1ccccc1 (centres unmarked) [Compound 8k, 5-Amino-7,8-dihydro-7-phenyl-3-(pyridin-3-yl)-[1,2,4]triazolo[4,3-a]pyrimidine-6-carbonitrile]",IC50,[5],37.5 µM
same,SI (selectivity index),[5],8
same,fold less potent than compound 8o against COX-2,[5],3.5 fold
"N#CC1=C(N)n2c(nnc2-c2cccnc2)NC1c1ccc(Br)cc1 (centres unmarked) [Compound 8l, 5-Amino-7-(4-bromophenyl)-7,8-dihydro-3-(pyridin-3-yl)-[1,2,4]triazolo [4,3-a]pyrimidine-6-carbonitrile]",IC50,[5],53.7 µM
same,SI (selectivity index),[5],4
"N#CC1=C(N)n2c(nnc2-c2cccnc2)NC1c1ccc(Cl)cc1 (centres unmarked) [Compound 8m, 5-Amino-7-(4-chlorophenyl)-7,8-dihydro-3-(pyridin-3-yl)-[1,2,4]triazolo [4,3-a]pyrimidine-6-carbonitrile]",potency,[1],3
same,% inhibition (number of writhing),[1],41%
same,no. of writhes (mean ± SE),[1],19.00 ± 0.60
same,IC50,[6],2.9 µM and 3.05 µM
same,IC50,[7],2.95 ± 0.08 nM
same,CK-MB (IU/L),[3],20 ± 02 IU/L
same,LDH (IU/L),[3],1485 ± 60 IU/L
same,troponin-I,[3],128 ± 06 pg/mL
same,IC50,[5],11.6 µM
same,SI (selectivity index),[5],20
same,% of edema inhibition 1 h,[4],32%
same,% of edema inhibition 3 h,[4],59%
same,% of edema inhibition 5 h,[4],70%
"Cc1ccc(C2Nc3nnc(-c4cccnc4)n3C(N)=C2C#N)cc1 (centres unmarked) [Compound 8n, 5-Amino-7,8-dihydro-3-(pyridin-3-yl)-7-p-tolyl-[1,2,4]triazolo[4,3-a]pyrimidine-6-carbonitrile]",IC50,[5],21.9 µM
same,SI (selectivity index),[5],10
"COc1ccc(C2Nc3nnc(-c4cccnc4)n3C(N)=C2C#N)cc1 (centres unmarked) [Compound 8o, 5-Amino-7,8-dihydro-7-(4-methoxyphenyl)-3-(pyridin-3-yl)-[1,2,4] triazolo[4,3-a]pyrimidine-6-carbonitrile]",potency,[1],3.5
same,% inhibition (number of writhing),[1],47% and 47.50%
same,no. of writhes (mean ± SE),[1],15.00 ± 0.50
same,IC50,[6],3.05 µM
same,score: no. of gastric ulcers,[2],0
same,score: severity lesions,[2],0
same,ulceration in the isolated rat stomach (observation),[2],no ulceration
same,IC50,[7],2.1 ± 0.07 nM
same,CK-MB (IU/L),[3],17 ± 01 IU/L
same,LDH (IU/L),[3],1390 ± 50 IU/L
same,troponin-I,[3],107 ± 05 pg/mL
same,% of edema inhibition 1 h,[4],37%
same,% of edema inhibition 3 h,[4],61%
same,% of edema inhibition 5 h,[4],73%
CC(C)Cc1ccc(C(C)C(=O)O)cc1 (centres unmarked) [ibuprofen],ulcer index,[8],21.26
COc1ccc2c(c1)c(CC(=O)O)c(C)n2C(=O)c1ccc(Cl)cc1 [indomethacin],score: no. of gastric ulcers,[2],8.5 ± 0.40
same,score: severity lesions,[2],12.50 ± 0.70
